These results are taken from US9296778B2, “3′,5′-cyclic phosphate prodrugs for HCV infection” (Idenix Pharmaceuticals, Inc., priority 2012, dated 2016).

Data set [1] concerns HCV genotype 1b replicon. Put plainly: HCV Replicon Assay. The conditions noted are these: Zluc cells (Huh-7-derived, HCV genotype 1b replicon, luciferase reporter), 72 hours, read-out: HCV Replicon EC50. It counts as cell-based. On the procedure:
Huh-7-derived cell line (Zluc) that harbors an HCV genotype 1b replicon and a luciferase reporter gene was grown in Dulbecco's Modified Eagle Medium (DMEM) supplemented with 10% fetal bovine serum, 2 mM GlutaMAX, 1% MEM nonessential amino acids, 100 IU/mL penicillin, 100 μg/mL streptomycin, and 0.5 mg/mL Geneticin® (G418). For dose response testing the cells were seeded in 96-well plates at 7.5×10^3 cells per well in a volume of 50 μL, and incubated at 37° C./5% CO2. Drug solutions were made up freshly in Huh-7 media as 2× stocks. Ten additional 5-fold dilutions were prepared from these stocks in DMEM without G418. At least three hours after Zluc cells were seeded, drug treatment was initiated by adding 50 μL of drug dilutions to the plates in duplicate. Final concentrations of drug ranged from 100 μM to […]. Cells were then incubated at 37° C./5% CO2. Alternatively, compounds were tested at two concentrations (1 μM and 10 μM). […] For this, media was removed from the plates via gentle tapping. Fifty microliters of ONE-glo luciferase assay reagent was added to each well. The plates were shaken gently for 3 min at room temperature and luminescence was measured on a Victor^3 V 1420 multilabel counter (Perkin Elmer) with a 1 second read time using a 700 nm cut-off filter. The EC50 values were calculated from dose response curves from the resulting best-fit equations determined by Microsoft Excel and XLfit 4.1 software. When screening at two fixed concentrations, the results were expressed as % inhibition at 1 μM and 10 μM.
(In general: In antiviral work, replicon cells carry a viral genome segment that copies itself.)

Data set [2] is described as follows: in vitro. To be noted: human, HCV Replicon CC50, Zluc cells, CellTiter-Blue.
Data set [3] deals with fresh human hepatocytes. The data set is described as follows: Release of active metabolite in fresh human hepatocytes. It counts as in vitro ADME. The conditions noted are these: 10 μM compound; for FHH TP Cmax: fresh human hepatocytes; for FHH TP AUC: fresh human hepatocytes, 6, 24 and 48 hours. On the procedure:
Plates of fresh human and mouse hepatocytes were obtained on ice. The medium was removed and replaced with hepatocyte culture medium (William's E supplemented with penicillin-streptomycin, 1% L-glutamine, 1% insulin-transferrin-selenium and 0.1 μM Dexamethasone (Invitrogen) or with Invitro GRO HI medium complemented with Torpedo antibiotics (Celsis)). Cells were left overnight in an incubator at 37° C. to acclimatize to culture and the medium.
Hepatocyte incubations were conducted at a final volume of 0.5 mL hepatocyte culture medium/well (0.8 million cells/well for human and 0.5 million cells/well for mouse; 12 well plate no overlay, collagen coat). Culture medium from overnight incubation of cells was removed and replaced with fresh medium, pre-warmed to 37° C., containing 10 μM of test compound from a stock solution in DMSO (final DMSO concentration was 0.1%). At each specific time point, incubation medium was removed and cell monolayers were carefully washed two times with ice-cold PBS. Following the last wash, all PBS was carefully removed and 1.0 mL of extraction solution (ice-cold 70% methanol/30% water) added. Cells were scraped off and suspended in the extraction solution, transferred to 2 mL polypropylene microfuge tubes and intracellular contents extracted overnight at −20° C.
After the overnight treatment the cellular extracts were prepared by centrifugation at 16,000×g for 10 min to remove cellular debris. The remaining sample was then dried using a refrigerated centrivap concentrator. Dry extracts were reconstituted in 1000 μL of HPLC-grade water and centrifuged at 16,000×g for 10 min. Aliquots (100 μL each) of the supernatant were transferred into a 96 well plate and internal standard (4 ng/mL final concentration) was added as the internal standard (IS) for LC-MS/MS analysis.
The incubation time points were 6, 24 and 48 hours for human hepatocytes and 1, 4, 8, 12 and 24 hours for mouse hepatocytes.

Data set [4] relates to Zluc cells. The data set is described as follows: cytotoxicity evaluation (CellTiter-Blue Cell Viability Assay). The conditions noted are these: read-out: HCV Replicon CC50; Zluc cells, CellTiter-Blue. A general note: The colour change of resazurin is a common sign of viable cells or microbes.

Structures are written as SMILES. Where two headings read alike, the source gives them in different places.

In the case of `CCOC(=O)[C@@H](C)OP1(=O)OC[C@H]2O[C@@H](n3cnc4c(OC)nc(N)nc43)C(C)(O)[C@@H]2O1` (stereo partly drawn) [Compound 30], in data set [1] (Hepatitis C virus, 72 h), the 50% effective concentration (EC50) (commonly the concentration giving half of the maximal effect) lay within 1000 to 10000 nM. Also, in data set [2], the CC50 (in general, the concentration giving 50% cytotoxicity) is over 50000 nM.

`CCOc1nc(N)nc2c1ncn2[C@@H]1O[C@@H]2COP(=O)(OCCCNC(=O)[C@@H]3OC(C)(C)OCC3(C)C)O[C@H]2[C@@]1(C)O` (stereo partly drawn) [Compound 38]: the concentration for a half-maximal effect (EC50) in data set [1] (Hepatitis C virus, 72 h) is under 250 nM. This molecule registered a CC50 in data set [2] of over 50000 nM.

As to `COc1nc(N)nc2c1ncn2[C@@H]1O[C@@H]2COP(=O)(OCCSSCCO)O[C@H]2[C@@]1(C)O` (stereo partly drawn) [Compound 37], the EC50 in data set [1] (Hepatitis C virus, 72 h) was under 250 nM. In addition, the cytotoxic concentration (CC50) in data set [2] is under 50000 nM.

In the case of `CCOc1nc(N)nc2c1ncn2[C@@H]1O[C@@H]2COP(=O)(OCCC(=O)OC(C)C)O[C@H]2[C@@]1(C)O` (single isomer, unassigned; diastereomer 1) [Compound 22 Diastereomer 1], in data set [3], the “FHH TP Cmax” value is 44 pmol/mill cells and the “FHH TP AUC” value came out at 1247 pmol · hr/mill cells. In addition, the EC50 in data set [1] is under 250 nM. Moreover, the CC50 in data set [4] is over 50000 nM.

On to `CCOc1nc(N)nc2c1ncn2[C@@H]1O[C@@H]2COP(=O)(OCCSC(=O)C(C)(C)COC(C)=O)O[C@H]2[C@@]1(C)OC(C)=O` (single isomer, unassigned; diastereomer 1) [Compound 19 Diastereomer 1], for which, in data set [1], the EC50 was under 250 nM. The cytotoxic concentration (CC50) in data set [4] is under 50000 nM.

With `CCOC(=O)CCCOP1(=O)OC[C@H]2O[C@@H](n3cnc4c(OC)nc(N)nc43)[C@](C)(O)[C@@H]2O1` (stereo partly drawn) [Compound 25], in data set [1] (Hepatitis C virus, 72 h), the EC50 lay in the range of 250 to 1000 nM. This molecule also registered a half-maximal cytotoxic concentration (CC50) in data set [2] of over 50000 nM.

Consider `COC(=O)c1ccccc1COP1(=O)OC[C@H]2O[C@@H](n3cnc4c(OC)nc(N)nc43)[C@](C)(O)[C@@H]2O1` (stereo partly drawn) [Compound 33], for which, in data set [1] (Hepatitis C virus, 72 h), the concentration for a half-maximal effect (EC50) is under 250 nM. The CC50 in data set [2] is under 50000 nM.

Consider `CCOc1nc(N)nc2c1ncn2[C@@H]1O[C@@H]2COP(=O)(OCCCNC(=O)[C@H](O)C(C)(C)CO)O[C@H]2[C@@]1(C)O` (stereo partly drawn) [Compound 39], for which the EC50 in data set [1] (Hepatitis C virus, 72 h) is under 250 nM. Also, the 50% cytotoxic concentration (CC50) in data set [2] was under 50000 nM.

In the case of `COc1nc(N)nc2c1ncn2[C@@H]1O[C@@H]2COP(=O)(OCC(=O)OC(C)C)O[C@H]2[C@@]1(C)F` (stereo partly drawn) [Compound 26], the EC50 in data set [1] (Hepatitis C virus, 72 h) was under 250 nM. Moreover, the half-maximal cytotoxic concentration (CC50) in data set [2] is over 50000 nM.

Regarding `CCOc1nc(N)nc2c1ncn2[C@@H]1O[C@@H]2COP(=O)(OCCC(=O)OC(C)C)O[C@H]2[C@@]1(C)F` (stereo partly drawn) [Compound 21], the EC50 in data set [1] (Hepatitis C virus, 72 h) is under 250 nM. The CC50 in data set [2] is over 50000 nM.

`COc1nc(N)nc2c1ncn2[C@@H]1O[C@@H]2COP(=O)(OCC(=O)OC(C)C)O[C@H]2[C@@]1(C)OC(C)=O` (stereo partly drawn) [Compound 32]: the EC50 in data set [1] (Hepatitis C virus, 72 h) is under 250 nM. The same molecule returned a CC50 in data set [2] of under 50000 nM.

As for `CCOc1nc(N)nc2c1ncn2[C@@H]1O[C@@H]2COP(=O)(OCCSC(=O)C(C)(C)CO)O[C@H]2[C@@]1(C)OC(C)=O` (single isomer, unassigned; diastereomer 1) [Compound 16 Diastereomer 1], the concentration for a half-maximal effect (EC50) in data set [1] was under 250 nM. In addition, the half-maximal cytotoxic concentration (CC50) in data set [4] was under 50000 nM.

Turning to `COc1nc(N)nc2c1ncn2[C@@H]1O[C@@H]2COP(=O)(OCC(=O)OC(C)C)O[C@H]2[C@@]1(C)F` (single isomer, unassigned; diastereomer 1) [Compound 26 Diastereomer 1], in data set [3], the “FHH TP Cmax” value was “BLD^a” and the “FHH TP AUC” value was “BLD^a”.

As for `CCOC(=O)CCCOP1(=O)OC[C@H]2O[C@@H](n3cnc4c(OC)nc(N)nc43)[C@](C)(O)[C@@H]2O1` (stereo partly drawn) [Compound 29], in data set [1], the EC50 is under 250 nM. Further, the CC50 in data set [4] is under 50000 nM.

On to `CCOc1nc(N)nc2c1ncn2[C@@H]1O[C@@H]2COP(=O)(OC[C@H](NC(=O)OC)C(=O)OC(C)C)O[C@H]2[C@@]1(C)F` (stereo partly drawn) [Compound 15], for which, in data set [3], the “FHH TP Cmax” value is 36 pmol/mill cells and the “FHH TP AUC” value came out at 1335 pmol · hr/mill cells. In addition, in data set [1] (Hepatitis C virus, 72 h), the concentration giving a half-maximal response (EC50) was under 250 nM. For the same molecule, the CC50 in data set [2] was over 50000 nM.

Consider `CC(C)(CO)C(=O)SCCOP1(=O)OC[C@H]2O[C@@H](n3cnc4c(=O)[nH]c(N)nc43)[C@](C)(F)[C@@H]2O1` (single isomer, unassigned; diastereomer 1) [Compound 17 Diastereomer 1], for which the EC50 in data set [1] lay in the range of 250 to 1000 nM. For the same molecule, the CC50 in data set [4] is over 50000 nM.

As for `CCOc1nc(N)nc2c1ncn2[C@@H]1O[C@@H]2COP(=O)(OCCSC(=O)C(C)(C)COC(C)=O)O[C@H]2[C@@]1(C)OC(C)=O` (single isomer, unassigned; diastereomer 2) [Compound 19 Diastereomer 2], the concentration giving a half-maximal response (EC50) in data set [1] is under 250 nM. Moreover, the CC50 in data set [4] is under 50000 nM.

With `COc1nc(N)nc2c1ncn2[C@@H]1O[C@@H]2COP(=O)(OCC(=O)OC(C)C)O[C@H]2[C@@]1(C)O` (stereo partly drawn) [Compound 28], the half-maximal effective concentration (EC50) in data set [1] (Hepatitis C virus, 72 h) is under 250 nM. This molecule also gave a CC50 in data set [2] of under 50000 nM.

As to `CC(C)(CO)C(=O)SCCOP1(=O)OC[C@H]2O[C@@H](n3cnc4c(=O)[nH]c(N)nc43)[C@](C)(F)[C@@H]2O1` (single isomer, unassigned; diastereomer 2) [Compound 17 Diastereomer 2], the half-maximal effective concentration (EC50) in data set [1] was under 250 nM. In addition, in data set [4], the CC50 is under 50000 nM.

Take `CCOC(=O)C[C@@H](C)OP1(=O)OC[C@H]2O[C@@H](n3cnc4c(OC)nc(N)nc43)[C@](C)(O)[C@@H]2O1` (stereo partly drawn) [Compound 31]: the EC50 in data set [1] (Hepatitis C virus, 72 h) is 250 to 1000 nM. Besides, in data set [2], the half-maximal cytotoxic concentration (CC50) was over 50000 nM.

With `CCOC(=O)N[C@@H](C)COP1(=O)OC[C@H]2O[C@@H](n3cnc4c(OCC)nc(N)nc43)[C@](C)(F)[C@@H]2O1` (stereo partly drawn) [Compound 11], the half-maximal effective concentration (EC50) in data set [1] (Hepatitis C virus, 72 h) is under 250 nM. The molecule further gave a half-maximal cytotoxic concentration (CC50) in data set [2] of over 50000 nM.

For `CC(=O)OCC(C)(C)C(=O)SCCOP1(=O)OC[C@H]2O[C@@H](n3cnc4c(=O)[nH]c(N)nc43)[C@](C)(F)[C@@H]2O1` (single isomer, unassigned; diastereomer 1) [Compound 18 Diastereomer 1], the half-maximal effective concentration (EC50) in data set [1] was in the range of 250 to 1000 nM. For the same molecule, in data set [4], the CC50 was over 50000 nM.

Regarding `CCOC(=O)COP1(=O)OC[C@H]2O[C@@H](n3cnc4c(OCC)nc(N)nc43)[C@](C)(F)[C@@H]2O1` (single isomer, unassigned; diastereomer 2) [Compound 7 Diastereomer 2], the EC50 in data set [1] was under 250 nM.

Consider `COc1nc(N)nc2c1ncn2[C@@H]1O[C@@H]2COP(=O)(OCC(=O)OCc3ccccc3)O[C@H]2[C@@]1(C)O` (stereo partly drawn) [Compound 27], for which, in data set [1] (Hepatitis C virus, 72 h), the half-maximal effective concentration (EC50) is under 250 nM. The molecule further yielded a CC50 in data set [2] of under 50000 nM.

Turning to `CC(=O)OCC(C)(C)C(=O)SCCOP1(=O)OC[C@H]2O[C@@H](n3cnc4c(=O)[nH]c(N)nc43)[C@](C)(F)[C@@H]2O1` (single isomer, unassigned; diastereomer 2) [Compound 18 Diastereomer 2], the concentration for a half-maximal effect (EC50) in data set [1] is under 250 nM. Besides, the cytotoxic concentration (CC50) in data set [4] is under 50000 nM.

Regarding `CCOC(=O)OC(C)OP1(=O)OC[C@H]2O[C@@H](n3cnc4c(OC)nc(N)nc43)[C@](C)(O)[C@@H]2O1` (stereo partly drawn) [Compound 34], the concentration for a half-maximal effect (EC50) in data set [1] (Hepatitis C virus, 72 h) is under 250 nM. Besides, in data set [2], the cytotoxic concentration (CC50) was under 50000 nM.

As for `CCOc1nc(N)nc2c1ncn2[C@@H]1O[C@@H]2COP(=O)(OC[C@H](C)NC(=O)OCC(C)C)O[C@H]2[C@@]1(C)F` (single isomer, unassigned; diastereomer 1) [Compound 12 Diastereomer 1], the EC50 in data set [1] was under 250 nM. Moreover, the cytotoxic concentration (CC50) in data set [4] is over 50000 nM.
